{"source": "patent US20180008598A1", "about": "“ANTIBACTERIAL NASAL COMPOSITIONS AND RELATED METHODS” (Xlear, Inc., priority 2016, published 2018)", "origin": "cited, not measured here", "key": {"Streptococcus pneumonia": {"system": "Streptococcus pneumonia", "conditions": "in vitro, during its logarithmic growth phase"}, "dental caries": {"system": "dental caries", "conditions": "regular consumption"}}, "data": [{"smiles": "OC[C@@H](O)[C@H](O)[C@@H](O)CO", "note": "[Xylitol, xylitol]", "values": [{"measurement": "growth of Streptococcus pneumonia", "setting": "Streptococcus pneumonia", "result": "inhibit the growth"}, {"measurement": "incidence of dental caries", "setting": "dental caries", "result": "reduce the incidence of dental caries"}]}]}
